# From patent US20240174637A1, “DEGRADERS OF GRK2 AND USES THEREOF” (Sonata Therapeutics, Inc., priority 2021, published 2024)
# Key:
# [1] = target: T1, GRK2 (Homo sapiens, UniProt P25098); assay: GRK2 Inhibition Assay (TR-FRET, Example 1); type: biochemical; details: TR-FRET, 7 μM ATP; read-out: Enzymatic GRK2 Assay: IC50 (nM) (Example 1)
# T1 sequence (P25098 1-689): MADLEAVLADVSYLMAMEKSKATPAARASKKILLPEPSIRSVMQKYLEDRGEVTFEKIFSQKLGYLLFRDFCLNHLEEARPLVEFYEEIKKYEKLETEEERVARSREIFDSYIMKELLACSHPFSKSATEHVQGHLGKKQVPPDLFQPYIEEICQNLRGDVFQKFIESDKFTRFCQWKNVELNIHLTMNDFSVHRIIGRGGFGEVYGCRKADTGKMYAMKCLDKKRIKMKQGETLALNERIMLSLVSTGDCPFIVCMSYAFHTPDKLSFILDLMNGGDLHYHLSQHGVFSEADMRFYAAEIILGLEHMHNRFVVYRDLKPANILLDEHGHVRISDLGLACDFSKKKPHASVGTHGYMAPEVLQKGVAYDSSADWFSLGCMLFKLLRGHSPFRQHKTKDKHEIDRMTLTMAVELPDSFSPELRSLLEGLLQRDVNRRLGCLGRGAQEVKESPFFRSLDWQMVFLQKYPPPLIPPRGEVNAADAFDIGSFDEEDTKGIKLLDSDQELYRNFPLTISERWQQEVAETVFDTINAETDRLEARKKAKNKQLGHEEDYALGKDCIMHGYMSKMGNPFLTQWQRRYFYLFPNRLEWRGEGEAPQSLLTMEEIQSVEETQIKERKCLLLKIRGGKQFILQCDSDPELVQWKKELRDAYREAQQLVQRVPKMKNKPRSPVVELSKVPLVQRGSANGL
# Experimental: Assay: GRK2 enzyme (1 nM final concentration) was diluted in 25 mM HEPES, 10 mM MgCl2, 2 mM DTT, 0.01% Tween-20, and 1 mM EGTA. Then the GRK2 mixture was added into ProxiPlate-384 white plate and pre-incubated for 30 min with test compounds at room temperature. ATP (7 μM final concentration) and Ulight TopoIIα (50 nM final concentration) were added into the assay plate to initiate the reaction and the mixture was incubated at room temperature for 90 min. Then, Eu anti-TopoIIα (0.12 nM final concentration), BSA (0.01% final concentration), and EDTA (11 mM final concentration) in LANCE assay buffer were added into each well. After 60 min incubation time at room temperature, TR-FRET signal was measured by EnVision plate reader.
# [2] = test system: PAXF1657 EV; assay: 7-day cellular proliferation assay (CellTiter-Glo), PAXF1657 EV; type: cell-based; details: proliferation, read-out: GeoMean IC50 (UM) PAXF1657 EV
# Experimental: (§1) In order to identify compounds specific for GRK2, we generated two isogenic cell line pairs of the pancreatic cancer cell line PAXF1657, a pair of cells stably overexpressing GRK2 cDNA or the control empty vector and a cell line pair of PAXF1657 GRK2 knockout clonal cells versus non-targeting control clonal cells.
# (§2) Proliferation Assay: Cellular anti-proliferative activity of compounds was assessed by using the pancreatic cancer cell line, PAXF1657, stably overexpressing GRK2 cDNA or the control empty vector, as well as the parental urinary bladder cancer cell line, 5637. In addition, we also took advantage of GRK2 knockout cell lines that were generated via CRISPR. Cell lines were seeded into tissue culture treated, white-walled, 96-well plates at a density of 500 cells/well in RPMI1640 media supplemented with 10% H.I. FBS and penicillin/streptomycin. Plates were incubated overnight at 37° C., 5% CO2 to allow cells to adhere to the wells. GRK2 inhibitors were added to the cells using a 10-point dilution series with a final concentration ranging from 30 μM-0.0002 μM in 0.3% DMSO. At the time of compound addition, a set of plates, that were not treated with compounds, were collected and cell viability was measured using CellTiter-Glo (Promega). CellTiter-Glo reagent was added to the designed plates and luminescence was measuring using a Biotek Synergy plate reader. The compound treated cells were incubated for 3 days at 37° C., 5% CO2. The media was then aspirated from each well and replaced with fresh media containing GRK2 inhibitors. The compound treated cells were then incubated for an additional 4 days at 37° C., 5% CO2. Cell viability was assessed and at end of the 7-day compound treatment by CellTiterGlo.
# [3] = test system: PAXF1657 KO Clone #4; assay: 7-day cellular proliferation assay (CellTiter-Glo), PAXF1657 KO Clone #4; type: cell-based; details: proliferation, read-out: GeoMean IC50 (uM) PAXF1657 KO Clone #4
# Experimental: as §1, §2
# [4] = target: T1, GRK2; assay: GRK2 Degradation Assay and Western Blot in PAXF1657 cells; type: cell-based; parameters: endogenous in cells; host or cells: PAXF1657; details: for inhibition at 0.3 µM: Conc 0.3 uM; for inhibition at 0.3 µM / inhibition at 1 µM / inhibition at 3 µM: read-out: Degradation Assay - 3 point: Degradation (%); for inhibition at 1 µM: Conc 1 uM; for inhibition at 3 µM: Conc 3 uM
# Experimental: General Protocol: Degradation Assay and Western Blot. PAXF1657 cells were plated in 6-well, 24-well plates or 60 mm tissue culture treated dishes and incubated at 37° C. until 70% confluency. The media was aspirated, and the cells were treated with fresh media containing the compounds in the concentration range of 0 μM to 10 μM for a period of 6 to 24 hours. At the desired time points the cells were washed twice with cold PBS and lysed with lysis buffer (ice cold PBS+1% NP40 with 1/100 protease/phosphatase inhibitors) on ice for 8 mins followed by sonication at 70% intensity pulses for 10 seconds. The cells were centrifuged at 20000 g for 8 min at 4° C. The supernatants were collected and stored at −80° C.
# Samples were mixed with NuPAGE LDS sample buffer and NuPAGE sample reducing buffer (3×), vortexed and heated at 95° C. for 10 min, and then analyzed by SDS-PAGE (NuPAGE 4-12%) followed by transfer to nitrocellulose membrane. […] The membranes were washed three times with TBST and incubated with GRK2 or R-actin antibodies in 5% milk in TBST at 4° C. overnight. The membranes were washed three times with TBST and incubated with anti-mouse IgG-HRP or anti-rabbit IgG-HRP at room temperature for 2 hours in 5% milk in TBST. The membranes were washed three times with TBST and developed with ECL Dura, ECL femto or ECL atto substrates.
structure (smiles),measurement,setting,value
Cc1ncsc1-c1ccc(CNC(=O)[C@@H]2C[C@@H](O)CN2C(=O)C(NC(=O)CCCCc2cn(CCCCCCOc3cccc(CNC(=O)c4cccc(NCc5nnc(-c6ccncn6)n5C)c4)c3)nn2)C(C)(C)C)cc1 (stereo partly drawn) [Compound D84],IC50,[1],< 100 nM
"C[C@@H](NC(=O)c1cccc(NCc2nnc(-c3ccncn3)n2C)c1)c1cc(OCCCCCCOCCOCCOCCCCCC(=O)Nc2cccc3c2CN(C2CCC(=O)NC2=O)C3=O)ccc1F (stereo partly drawn) [Compound D54, N-((1R)-1-(5-((6-(2-(2-((6-((2-(2,6-dioxopiperidin-3-yl)-1-oxoisoindolin-4-yl)amino)-6-oxohexyl)oxy)ethoxy)ethoxy)hexyl)oxy)-2-fluorophenyl)ethyl)-3-(((4-methyl-5-(pyrimidin-4-yl)-4H-1,2,4-triazol-3-yl)methyl)amino)benzamide]",IC50,[1],< 100 nM
"Cc1ncsc1-c1ccc(CNC(=O)[C@@H]2C[C@@H](O)CN2C(=O)[C@@H](NC(=O)CCCCCOCCOCCOCCCCCCOc2ccc(F)c([C@@H](C)NC(=O)c3cccc(NCc4nnc(-c5ccncn5)n4C)c3)c2)C(C)(C)C)cc1 [Compound D75, (2S,4R)-1-((S)-2-(tert-butyl)-22-(4-fluoro-3-((R)-1-(3-(((4-methyl-5-(pyrimidin-4-yl)-4H-1,2,4-triazol-3-yl)methyl)amino)benzamido)ethyl)phenoxy)-4-oxo-10,13,16-trioxa-3-azadocosan-1-oyl)-4-hydroxy-N-(4-(4-methylthiazol-5-yl)benzyl)pyrrolidine-2-carboxamide]",IC50,[1],< 100 nM
"Cc1ncsc1-c1ccc(CNC(=O)[C@@H]2C[C@@H](O)CN2C(=O)[C@@H](NC(=O)CCCCCOCCOCCOCCCCCCOc2ccc(F)c(CNC(=O)c3cccc(NCc4nnc(-c5ccncn5)n4C)c3)c2)C(C)(C)C)cc1 [Compound D88, (2S,4R)-1-((S)-2-(tert-butyl)-22-(4-fluoro-3-((3-(((4-methyl-5-(pyrimidin-4-yl)-4H-1,2,4-triazol-3-yl)methyl)amino)benzamido)methyl)phenoxy)-4-oxo-10,13,16-trioxa-3-azadocosan-1-oyl)-4-hydroxy-N-(4-(4-methylthiazol-5-yl)benzyl)pyrrolidine-2-carboxamide]",IC50,[1],100 to 1000 nM
"Cc1ncsc1-c1ccc(CNC(=O)[C@@H]2C[C@@H](O)CN2C(=O)[C@@H](NC(=O)CCCCCOCCOCCOCCCCCCOc2ccc(F)c([C@H](C)NC(=O)c3cccc(NCc4nnc(-c5ccncn5)n4C)c3)c2)C(C)(C)C)cc1 [Compound D74, (2S,4R)-1-((S)-2-(tert-butyl)-22-(4-fluoro-3-((S)-1-(3-(((4-methyl-5-(pyrimidin-4-yl)-4H-1,2,4-triazol-3-yl)methyl)amino)benzamido)ethyl)phenoxy)-4-oxo-10,13,16-trioxa-3-azadocosan-1-oyl)-4-hydroxy-N-(4-(4-methylthiazol-5-yl)benzyl)pyrrolidine-2-carboxamide]",IC50,[1],100 to 1000 nM
"Cc1ncsc1-c1ccc(CNC(=O)[C@@H]2C[C@@H](O)CN2C(=O)[C@@H](NC(=O)COCCCOCCCCCOc2cccc([C@@H](C)NC(=O)c3cccc(NCc4nnc(-c5ccncn5)n4C)c3)c2)C(C)(C)C)cc1 [Compound D182, (2S,4R)-1-((S)-3,3-dimethyl-2-(2-(3-((5-(3-((R)-1-(3-(((4-methyl-5-(pyrimidin-4-yl)-4H-1,2,4-triazol-3-yl)methyl)amino)benzamido)ethyl)phenoxy)pentyl)oxy)propoxy)acetamido)butanoyl)-4-hydroxy-N-(4-(4-methylthiazol-5-yl)benzyl)pyrrolidine-2-carboxamide]",IC50,[2],120 nM
same,IC50,[3],10 µM
same,inhibition at 0.3 µM,[4],29.1%
same,inhibition at 1 µM,[4],29.5%
same,inhibition at 3 µM,[4],21.3%
same,DC50,"[4]; PAXF1657, 24 h, read-out: Degradation Assay - Full Dose Response: IC50 (uM) [cell line: PAXF1657, time point: 24 h]",0.38 µM
"C[C@H](NC(=O)c1cccc(NCc2nnc(-c3ccncn3)n2C)c1)c1cccc(OCCCCCCOCCOCCOCCCCCC(=O)Nc2cccc3c2CN(C2CCC(=O)NC2=O)C3=O)c1 (stereo partly drawn) [Compound D55, N-((1S)-1-(3-((6-(2-(2-((6-((2-(2,6-dioxopiperidin-3-yl)-1-oxoisoindolin-4-yl)amino)-6-oxohexyl)oxy)ethoxy)ethoxy)hexyl)oxy)phenyl)ethyl)-3-(((4-methyl-5-(pyrimidin-4-yl)-4H-1,2,4-triazol-3-yl)methyl)amino)benzamide]",IC50,[1],< 100 nM
"C[C@H](NC(=O)c1cccc(NCc2nnc(-c3ccncn3)n2C)c1)c1cc(OCCCCCCOCCOCCOCCCCCC(=O)Nc2cccc3c2CN(C2CCC(=O)NC2=O)C3=O)ccc1F (stereo partly drawn) [Compound D53, N-((1S)-1-(5-((6-(2-(2-((6-((2-(2,6-dioxopiperidin-3-yl)-1-oxoisoindolin-4-yl)amino)-6-oxohexyl)oxy)ethoxy)ethoxy)hexyl)oxy)-2-fluorophenyl)ethyl)-3-(((4-methyl-5-(pyrimidin-4-yl)-4H-1,2,4-triazol-3-yl)methyl)amino)benzamide]",IC50,[1],100 to 1000 nM
"Cn1c(CNc2cccc(C(=O)N[C@@H]3CCOc4ccc(OCCCCCCOCCOCCOCCCCCC(=O)Nc5cccc6c5CN(C5CCC(=O)NC5=O)C6=O)cc43)c2)nnc1-c1ccncn1 (stereo partly drawn) [Compound D187, N-((4R)-6-(6-(2-(2-(6-(2-(2,6-dioxopiperidin-3-yl)-1-oxoisoindolin-4-ylamino)-6-oxohexyloxy)ethoxy)ethoxy)hexyloxy)chroman-4-yl)-3-((4-methyl-5-(pyrimidin-4-yl)-4H-1,2,4-triazol-3-yl)methylamino)benzamide]",IC50,[2],2090 nM
same,IC50,[3],> 30 µM
same,inhibition at 0.3 µM,[4],11.8%
same,inhibition at 1 µM,[4],23.8%
same,inhibition at 3 µM,[4],63.1%
Cc1ncsc1-c1ccc(CNC(=O)[C@@H]2C[C@@H](O)CN2C(=O)[C@@H](NC(=O)COCCCOCCCCCOc2ccc(CNC(=O)c3cccc(NCc4nnc(-c5ccncn5)n4C)c3)cc2)C(C)(C)C)cc1 [Compound D168],IC50,[2],> 1880 nM
same,IC50,[3],6.03 µM
same,inhibition at 0.3 µM,[4],0.276%
same,inhibition at 1 µM,[4],-12%
same,inhibition at 3 µM,[4],-22%
Cc1ncsc1-c1ccc(CNC(=O)[C@@H]2C[C@H](O)CN2C(=O)[C@@H](NC(=O)CCCCCOCCOCCOCCCCCCOc2cccc(CNC(=O)c3cccc(NCc4nnc(-c5ccncn5)n4C)c3)c2)C(C)(C)C)cc1 [Compound D89],IC50,[1],< 100 nM
